Assay results published in the supplement of paper PMC6470124.

Tests used:
[1] = absolute recovery over mixed-bed multilayer solid-phase extraction; higher = better recovery; conditions: enrichment method: SPE
How it was run: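 Wastewater (100–250 mL, adjusted to pH 6.5 and glass-fibre filtered) or 1000 mL unfiltered nanopure water was loaded on a three-layer mixed-bed cartridge and eluted with basic then acidic ethyl acetate/methanol. Standards were spiked before extraction, after it, or not at all, at 200 ng/L (water) or 1000 ng/L (wastewater), with class exceptions. Internal standards were added afterwards, then LC-HRMS/MS ran in both ionisation modes. Absolute recovery compares background-corrected response ratios of pre- versus post-spiked samples, averaged over at least two replicates.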

[2] = LC retention time (Atlantis T3, 5-95% MeOH gradient, 0.1% formic acid); higher = more retained / less polar
How it was run: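 Retention times were recorded for reference standards (purity ≥ 95%) on a polar reversed-phase C18 column (Atlantis T3, 3 × 150 mm, 3 μm) at 0.3 mL/min. Elution used water and methanol, each with 0.1% formic acid, in a gradient from 5 to 95% methanol over 17.5 min. Detection was by high-resolution tandem mass spectrometry on a QExactive Plus, with positive and negative electrospray in separate runs. Peaks were found and integrated in TraceFinder (5 ppm tolerance, at least three points per peak) and then checked by hand.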

[3] = absolute recovery over vacuum-assisted evaporative concentration; higher = better recovery; conditions: enrichment method: VEC
How it was run: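 Standards were spiked into water samples before concentration, after concentration or not at all; volumes were 6 mL influent, 15 mL effluent and 60 mL surface or nanopure water. Spiking levels were 200 ng/L for nanopure and surface water and 1000 ng/L for wastewater, adjusted by class and compound. After evaporation at 55 °C and 20 mbar to about 0.3 mL, samples were brought to 0.4 mL, centrifuged, given internal standards and analysed by LC-HRMS/MS. Absolute recovery equals (response ratio pre − unspiked)/(post − unspiked) × 100, based on averages of ≥ 2 replicates.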

SMILES | absolute recovery ([1]; nanopure water) [%] | absolute recovery ([1]; surface water) [%] | absolute recovery ([1]; wastewater effluent) [%] | absolute recovery ([1]; wastewater influent) [%] | LC retention time [2] [min] | absolute recovery ([3]; wastewater effluent) [%] | absolute recovery ([3]; wastewater influent) [%]
CC(Oc1ccc(Cl)cc1Cl)C(=O)[O-] (stereo not given) [Dichlorprop] | 97.8 | 95.4 |  | 87.9 | 20.1 | 104 | 99.8
COP(=O)(OC)OC=C(Cl)Cl [Dichlorvos] | 63.4 | 47.3 | 60 | 87.4 | 16.8 | 34.5 | 39.6
CC1COC(Cn2cncn2)(c2ccc(Oc3ccc(Cl)cc3)cc2Cl)O1 (stereo not given) [Difenoconazol] | 90.2 | 100 | 102 | 70.9 | 21.4 | 100 | 126
O=C(NC(=O)c1c(F)cccc1F)Nc1ccc(Cl)cc1 [Diflubenzuron] | 101 | 138 | 114 | 67.9 | 20.5 | 112 | 147
O=C(Nc1ccc(F)cc1F)c1cccnc1Oc1cccc(C(F)(F)F)c1 [Diflufenican] | 96.6 | 92.4 | 88 | 87.2 | 21.4 | 106 | 101
COc1ccc2c3c1OC1C(O)CCC4C(C2)[NH+](C)CCC341 (stereo not given) [Dihydrocodeine] | 98.5 | 107 | 94.1 | 97.7 | 9.1 | 108 | 100
CN(C)C(=O)Nc1ccc(-n2nc(C(C)(C)C)oc2=O)c(Cl)c1 [Dimefuron] | 103 | 98.3 | 100 | 92 | 18.9 | 108 | 103
COCCN(C(=O)CCl)c1c(C)cccc1C [Dimethachlor] | 93 | 89.9 | 89.6 | 95.7 | 18.8 | 94.3 | 97.7
COCC(C)N(C(=O)CCl)c1c(C)csc1C (stereo not given) [Dimethenamid] | 94.4 | 92.8 | 91.7 | 92.1 | 19.6 | 96 | 92.1
CNC(=O)CSP(=S)(OC)OC [Dimethoat] | 93.4 | 90.7 | 93 | 92.3 | 14.4 | 102 | 103
COc1ccc(C(=CC(=O)N2CCOCC2)c2ccc(Cl)cc2)cc1OC [Dimethomorph] | 98.4 | 81.4 | 81.4 | 91.4 | 19.5 | 116 | 95.7
CCCCCCCCCCCCCC[N+](C)(C)CCCCCCCCCCCCCC [Dimethylditetradecylammonium (=ATMAC-18)] |  |  | 55.3 | 38.7 | 21.6 | 119 | 4.7
CCC(C)c1cc([N+](=O)[O-])cc([N+](=O)[O-])c1[O-] (stereo not given) [Dinoseb] | 103 | 82.6 | 89.1 | 123 | 21.5 | 94.2 | 91.8
CCCC(CCC)(C(=O)[O-])C(=O)O [Dipropylmalonic-acid] | 94.4 | 88.7 | 94.7 | 87.9 | 18.2 | 103 | 109
CC(C)[NH+](CCC(C(N)=O)(c1ccccc1)c1ccccn1)C(C)C (stereo not given) [Disopyramide] | 90 | 94.4 | 92 | 104 | 12.2 | 98.1 | 106
NC(=O)Nc1ccc(Cl)c(Cl)c1 [Diuron-desdimethyl (=1-(3-4-Dichlorophenyl)urea)] | 98.3 | 100 | 96.4 | 94.9 | 18 | 101 | 102
CCCCCCCCCCCC[N+](C)(C)C [Dodecyltrimethylammonium] | 84.2 | 114 | 69.5 | 33.9 | 17.9 | 99.1 | 
C[NH+](C)CCOC(C)(c1ccccc1)c1ccccn1 (stereo not given) [Doxylamine] | 84.3 | 91.3 | 94.8 | 85 | 10.8 | 120 | 109
CC=C1[NH+](C)C(C)CC1(c1ccccc1)c1ccccc1 (stereo not given) [EDDP (=2-Ethylidene-1-5-dimethyl-3-3-diphenylpyrrolidin)] | 33.8 | 65 | 60.2 | 75.8 | 14.4 | 95 | 82.3
C[NH2+]C(C)C(O)c1ccccc1 (stereo not given) [Ephedrin] | 93.4 | 93.3 | 89.3 | 89.4 | 9.53 | 107 | 99
Fc1ccc(C2(Cn3cncn3)OC2c2ccccc2Cl)cc1 (stereo not given) [Epoxiconazol] | 100 | 95.4 | 93.9 | 92.7 | 20.3 | 103 | 99.3
CCC(CO)NCC[NH2+]C(CC)CO (stereo not given) [Ethambutol] | 75.8 | 64.3 | 66.3 | 66.2 | 3.04 | 102 | 124
CCOC1Oc2ccc(OS(C)(=O)=O)cc2C1(C)C (stereo not given) [Ethofumesat] | 98.7 | 102 | 96.1 | 92 | 19.2 | 105 | 94
C=C1CC2C(CCC3(C)C(=O)CCC23)C2(C)C=CC(=O)C=C12 (stereo not given) [Exemestan] | 91.6 | 96 | 93.2 | 98.3 | 19.6 | 100 | 71.7
O=C([O-])C[N-]S(=O)(=O)C(F)(F)C(F)(F)C(F)(F)C(F)(F)C(F)(F)C(F)(F)C(F)(F)C(F)(F)F [FOSAA] | 60.5 | 85.9 | 76.6 | 32.2 | 22.2 | 117 | 

The next lines start with the values.

absolute recovery ([1]; nanopure water) [%] | absolute recovery ([1]; surface water) [%] | absolute recovery ([1]; wastewater effluent) [%] | absolute recovery ([1]; wastewater influent) [%] | LC retention time [2] [min] | absolute recovery ([3]; wastewater effluent) [%] | absolute recovery ([3]; wastewater influent) [%] | SMILES
95.6 | 94 | 93.5 | 91.2 | 19.3 | 104 | 106 | COc1c(Cl)ccc(Cl)c1C(=O)[O-] [Dicamba]
102 |  |  |  | 20.8 |  | 98.5 | O=C([O-])Cc1ccccc1Nc1c(Cl)cccc1Cl [Diclofenac]
107 | 85.1 | 83.5 | 102 | 9.79 | 84.9 |  | O=c1[nH+]c[n-]c2c1ncn2C1CCC(CO)O1 (stereo not given) [Didanosin]
97.4 | 81.6 | 79 | 87 | 18.1 | 97.4 | 92.2 | CC12CCC3=C4CCC(=O)C=C4CCC3C1CCC2(O)CC#N (stereo not given) [Dienogest]
98.1 | 103 | 95.6 | 93.8 | 19.2 | 104 | 106 | CCOc1ccc(NC(=O)OC(C)C)cc1OCC [Diethofencarb]
89 | 95.6 | 91.9 | 144 | 15.1 | 90.5 | 94.2 | COc1ccc(C2Sc3ccccc3N(CC[NH+](C)C)C(=O)C2OC(C)=O)cc1 (stereo not given) [Diltiazem]
95.5 | 102 | 102 | 84.4 | 19.9 | 104 | 109 | COCCN(C(=O)CS(=O)(=O)[O-])c1c(C)cccc1C [Dimethachlor-ESA]
96.8 | 88 | 92.8 | 87.9 | 18.2 | 109 | 107 | COCCN(C(=O)C(=O)[O-])c1c(C)cccc1C [Dimethachlor-OXA]
96.4 | 99 |  | 86.6 | 19.8 | 105 | 108 | COCC(C)N(C(=O)C(=O)[O-])c1c(C)csc1C (stereo not given) [Dimethenamid-OXA]
96 | 92.9 | 96.6 | 15.6 | 16.1 | 108 | 90.7 | COC(=O)c1cc(C(=O)OC)cc(S(=O)(=O)[O-])c1 [Dimethyl-5-Sulfoisophthalate]
88.9 | 97 | 91.1 | 77.8 | 14.6 | 104 | 103 | C[NH+](C)CCOC(c1ccccc1)c1ccccc1 [Diphenhydramine]
99.4 | 112 | 102 | 86.1 | 18.6 | 105 | 106 | CNC(=O)Nc1ccc(Cl)c(Cl)c1 [Diuron-desmonomethyl (=DCPMU)]
97.7 | 98.5 | 92.1 | 94.1 | 18.8 | 109 | 103 | CN(C)C(=O)Nc1ccc(Cl)c(Cl)c1 [Diuron]
92.5 | 114 | 108 | 56.7 | 15.3 | 107 | 107 | COc1cc2[nH+]c(N3CCN(C(=O)C4COc5ccccc5O4)CC3)nc(N)c2cc1OC (stereo not given) [Doxazosin]
40.5 | 19.3 | 28.1 | 53.3 | 15.8 | 38.8 | 45.5 | COc1cccc2c1C(=O)c1c(O)c3c(c(O)c1C2=O)CC(O)(C(=O)CO)CC3OC1CC([NH3+])C(O)C(C)O1 (stereo not given) [Doxorubicin]
70.4 | 75.4 | 73.7 | 79.4 | 15.2 | 60.8 | 65.4 | COc1cccc2c1C(=O)c1c(O)c3c(c(O)c1C2=O)CC(O)(C(O)CO)CC3OC1CC([NH3+])C(O)C(C)O1 (stereo not given) [Doxorubicinol]
71.7 | 87.9 | 84.1 |  | 17.5 | 44.9 | 101 | CCCCc1oc2ccc(NS(C)(=O)=O)cc2c1C(=O)c1ccc(OCCC[NH+](CCCC)CCCC)cc1 [Dronedaron]
108 | 108 | 99.5 | 86.7 | 9.49 | 106 | 98.7 | OCC(O)C[NH+]1CCN(c2ccccc2)CC1 (stereo not given) [Dropropizine]
102 | 104 | 92.4 | 134 | 20.5 | 105 | 124 | O=C1Nc2ccc(Cl)cc2C(C#CC2CC2)(C(F)(F)F)O1 (stereo not given) [Efavirenz]
75.9 | 87.2 | 84.2 | 85.2 | 9.72 | 103 | 101 | Nc1nc(=O)n(C2CSC(CO)O2)cc1F (stereo not given) [Emtricitabine]
97.1 | 93.4 | 93.6 | 94.2 | 14.6 | 103 | 96.1 | CCCCc1[nH+]cc(C=C(Cc2cccs2)C(=O)[O-])n1Cc1ccc(C(=O)[O-])cc1 [Eprosartan]
50.1 | 69.3 | 78.3 | 83.3 | 16.9 | 113 |  | CCC1OC(=O)C(C)C(OC2CC(C)(OC)C(O)C(C)O2)C(C)C(OC2OC(C)CC([NH+](C)C)C2O)C(C)(O)CC(C)C(=O)C(C)C(O)C1(C)O (stereo not given) [Erythromycin]
69.5 | 50.8 | 76.7 | 88.3 | 15.2 | 101 | 82.2 | CC1(C)C(=O)Oc2ccc(OS(C)(=O)=O)cc21 [Ethofumesat-2-keto]
86.6 | 80.5 | 82.3 | 93.5 | 20.8 | 103 | 99.8 | CCc1cccc2c3c([nH]c12)C(CC)(CC(=O)[O-])OCC3 (stereo not given) [Etodolac]
82.7 | 66.5 | 53.5 |  | 22.2 | 56.2 |  | C=CCC1C=C(C)CC(C)CC(OC)C2OC(O)(C(=O)C(=O)N3CCCCC3C(=O)OC(C(C)=CC3CCC(O)C(OC)C3)C(C)C(O)CC1=O)C(C)CC2OC (stereo not given) [FK-506 (=Tacrolimus)]
